In experiment [1] the target is human GLP-1 receptor (GLP-1R) (Homo sapiens, UniProt P43220). As to the kind of experiment: cAMP pharmacological functional assay in presence of casein, hGLP-1R. In kind it is cell-based. The settings on record: HEK293 cells expressing hGLP-1R, 0.1% Casein, geometric mean; read-out: hGLP1R cAMP Rel EC50 nM (SEM, n).
A further experiment addresses T1, human Gcg receptor (Homo sapiens, UniProt P47871).
T1 construct: expressed in transfected cells; crude membranes
As to the kind of experiment: [125I]-Glucagon binding (SPA), human Gcg receptor. To be noted: read-out: hGLcgR Ki, nM (SEM, n). An outline of the steps:
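Cell pellets were lysed in hypotonic Tris buffer, pH 7.5, homogenized, and spun at low then high speed to give crude membranes. Ki was derived from the fitted IC50.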

The target in the next experiment is human GLP-1R (Homo sapiens, UniProt P43220). As to the kind of experiment: [125I]-GLP-1 binding (SPA), human GLP-1 receptor. On the set-up: expressed in transfected cells; crude membranes. The settings on record: read-out: hGLP1R Ki, (nM) (SEM, n). The method, boiled down:
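Crude-membrane binding assay; one membrane prep included 1 mM MgCl2 and 25 units/ml DNAse I during lysis. Assay buffer at pH 7.4 contains 0.1% (w/v) bacitracin and 0.003% (w/v) TWEEN-20. Ki is reported as geometric mean.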

The target in a further experiment is T2, human GIP receptor (Homo sapiens, UniProt P48546).
T2 construct: expressed in transfected cells; crude membranes
T2 sequence (P48546 22-466): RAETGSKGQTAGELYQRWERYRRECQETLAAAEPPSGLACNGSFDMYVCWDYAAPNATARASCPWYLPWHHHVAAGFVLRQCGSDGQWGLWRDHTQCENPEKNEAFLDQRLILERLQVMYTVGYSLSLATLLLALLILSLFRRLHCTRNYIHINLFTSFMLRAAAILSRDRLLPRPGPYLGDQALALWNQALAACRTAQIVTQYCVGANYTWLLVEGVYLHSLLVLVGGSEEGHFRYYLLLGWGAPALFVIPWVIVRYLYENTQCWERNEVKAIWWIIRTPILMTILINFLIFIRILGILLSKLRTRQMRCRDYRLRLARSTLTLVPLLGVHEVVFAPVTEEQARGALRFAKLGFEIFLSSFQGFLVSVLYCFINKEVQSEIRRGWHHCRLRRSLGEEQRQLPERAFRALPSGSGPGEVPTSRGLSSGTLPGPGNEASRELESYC
As to the kind of experiment: [125I]-GIP binding (SPA), human GIP receptor. To be noted: read-out: hGIPR Ki, nM (SEM, n).

Experiment [2] addresses T3, gastric inhibitory peptide receptor (GIPR) (Homo sapiens, UniProt P48546).
T3 sequence (P48546 22-466): T2 sequence (P48546 22-466)
Kind of experiment: cAMP pharmacological functional assay in presence of casein, hGIPR. The class given is cell-based. To be noted: HEK293 cells expressing hGIPR, 0.1% Casein, geometric mean; read-out: hGIPR cAMP Rel EC50 nM (SEM, n).

Each structure is given as a SMILES string. Numbered stars: 1 amine (or outer) side, 2 acyl side, 3 side chain; on linkers, the order of the positions; unused ones are H or OH. Square brackets hold non-standard residues; d marks the D form. Side chains are listed from the residue outwards. Peptide text beside a SMILES is read from it. * marks the point of attachment. C20 diacid = O=C(O)CCCCCCCCCCCCCCCCCCC(=O)*; C18 diacid = O=C(O)CCCCCCCCCCCCCCCCC(=O)*; αMePhe(2-F) = C[C@](N)(Cc1ccccc1F)C(=O)O; γGlu = O=C(O)[C@H](CCC(=O)[*:2])N[*:1]; αMeY = C[C@](N)(Cc1ccc(O)cc1)C(=O)O; αMeL = CC(C)C[C@](C)(N)C(=O)O; Orn = NCCC[C@H](N)C(=O)O; AEEA = NCCOCCOCC(=O)O; Aib = CC(C)(N)C(=O)O

T1 sequence (P47871 26-477): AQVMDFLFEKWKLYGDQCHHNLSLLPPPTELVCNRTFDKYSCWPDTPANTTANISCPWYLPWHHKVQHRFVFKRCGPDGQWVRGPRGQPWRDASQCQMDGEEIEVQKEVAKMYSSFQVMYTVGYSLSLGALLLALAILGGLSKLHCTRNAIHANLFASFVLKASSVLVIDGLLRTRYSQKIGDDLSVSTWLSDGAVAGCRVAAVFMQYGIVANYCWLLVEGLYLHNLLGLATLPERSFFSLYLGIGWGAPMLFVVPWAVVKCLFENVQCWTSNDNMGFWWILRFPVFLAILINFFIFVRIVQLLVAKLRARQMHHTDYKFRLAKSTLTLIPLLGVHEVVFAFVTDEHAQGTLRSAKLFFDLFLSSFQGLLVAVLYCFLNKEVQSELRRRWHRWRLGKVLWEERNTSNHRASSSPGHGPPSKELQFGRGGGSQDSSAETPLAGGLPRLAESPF
Chain of human GLP-1 receptor (GLP-1R) (P43220 24-463): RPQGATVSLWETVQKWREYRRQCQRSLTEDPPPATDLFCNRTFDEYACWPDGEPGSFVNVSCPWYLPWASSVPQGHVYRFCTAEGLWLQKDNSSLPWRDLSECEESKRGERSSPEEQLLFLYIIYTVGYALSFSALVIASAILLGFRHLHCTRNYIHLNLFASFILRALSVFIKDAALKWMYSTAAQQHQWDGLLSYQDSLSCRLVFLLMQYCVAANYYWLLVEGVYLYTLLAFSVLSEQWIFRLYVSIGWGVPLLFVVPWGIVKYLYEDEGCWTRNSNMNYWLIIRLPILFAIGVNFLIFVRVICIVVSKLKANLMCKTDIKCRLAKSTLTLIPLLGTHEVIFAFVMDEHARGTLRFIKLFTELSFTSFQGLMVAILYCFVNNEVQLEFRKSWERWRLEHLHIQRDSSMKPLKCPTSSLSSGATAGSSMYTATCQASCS
Chain of human GLP-1R (P43220 24-463): as above

Consider `CC[C@H](C)[C@H](NC(=O)[C@H](CC(C)C)NC(=O)[C@H](Cc1ccc(O)cc1)NC(=O)[C@@H](CCC(=O)O)NC(=O)[C@@H](NC(=O)[C@H](Cc1ccccc1)NC(=O)[C@H](CCC(=O)O)NC(=O)C(C)(C)NC(=O)[C@H](CCC(N)=O)NC(=O)[C@H](C)NC(=O)[C@H](CCCCNC(=O)COCCOCCNC(=O)COCCOCCNC(=O)CC[C@H](NC(=O)CCCCCCCCCCCCCCCCCCC(=O)O)C(=O)O)NC(=O)[C@H](CCC(=O)O)NC(=O)[C@H](CC(=O)O)NC(=O)[C@H](CC(C)C)NC(=O)[C@H](CC(C)C)NC(=O)[C@@H](NC(=O)[C@H](CO)NC(=O)[C@H](Cc1ccc(O)cc1)NC(=O)[C@H](CC(=O)O)NC(=O)[C@H](CO)NC(=O)[C@@H](NC(=O)[C@](C)(Cc1ccccc1F)NC(=O)[C@@H](NC(=O)CNC(=O)[C@H](CCC(=O)O)NC(=O)C(C)(C)NC(=O)[C@@H](N)Cc1ccc(O)cc1)[C@@H](C)O)[C@@H](C)O)[C@@H](C)CC)[C@@H](C)CC)C(=O)N[C@@H](CCC(=O)O)C(=O)NCC(=O)NCC(=O)N1CCC[C@H]1C(=O)N[C@@H](CO)C(=O)N[C@@H](CO)C(=O)NCC(=O)N[C@@H](C)C(=O)N1CCC[C@H]1C(=O)N1CCC[C@H]1C(=O)N1CCC[C@H]1C(=O)N[C@@H](CO)C(N)=O` [Example 226] (H-Y[Aib]EGT[αMePhe(2-F)]TSDYSILLDEK([AEEA-AEEA-γGlu-C20 diacid])AQ[Aib]EFI[dE]YLIEGGPSSGAPPPS-NH2), for which the 50% effective concentration (EC50) in experiment [1] came to 0.0284 nM; in experiment [2] it was 0.0461 nM. For the same compound, the Ki was determined as 200 nM at human Gcg receptor, 4.1 nM at human GLP-1R and 0.0254 nM at human GIP receptor.

On to `CC[C@H](C)[C@H](NC(=O)[C@H](CC(C)C)NC(=O)[C@](C)(Cc1ccc(O)cc1)NC(=O)[C@@H](CCC(=O)O)NC(=O)[C@@H](NC(=O)[C@H](Cc1ccccc1)NC(=O)[C@H](C)NC(=O)C(C)(C)NC(=O)[C@H](CCC(N)=O)NC(=O)[C@H](C)NC(=O)[C@H](CCCCNC(=O)COCCOCCNC(=O)COCCOCCNC(=O)CC[C@H](NC(=O)CCCCCCCCCCCCCCCCC(=O)O)C(=O)O)NC(=O)[C@H](CCCN)NC(=O)[C@H](CC(=O)O)NC(=O)[C@H](CC(C)C)NC(=O)[C@](C)(CC(C)C)NC(=O)[C@@H](NC(=O)[C@H](CO)NC(=O)[C@H](CC(C)C)NC(=O)[C@H](CC(=O)O)NC(=O)[C@H](CO)NC(=O)[C@@H](NC(=O)[C@](C)(Cc1ccccc1F)NC(=O)[C@@H](NC(=O)CNC(=O)[C@H](CCC(=O)O)NC(=O)C(C)(C)NC(=O)[C@@H](N)Cc1ccc(O)cc1)[C@@H](C)O)[C@@H](C)O)[C@@H](C)CC)[C@@H](C)CC)C(=O)N[C@@H](CCC(=O)O)C(=O)NCC(=O)NCC(=O)N1CCC[C@H]1C(=O)N[C@@H](CO)C(=O)N[C@@H](CO)C(=O)NCC(=O)N[C@@H](C)C(=O)N1CCC[C@H]1C(=O)N1CCC[C@H]1C(=O)N1CCC[C@H]1C(=O)N[C@@H](CO)C(N)=O` [Example 244] (H-Y[Aib]EGT[αMePhe(2-F)]TSDLSI[αMeL]LD[Orn]K([AEEA-AEEA-γGlu-C18 diacid])AQ[Aib]AFI[dE][αMeY]LIEGGPSSGAPPPS-NH2), for which the concentration giving a half-maximal response (EC50) in experiment [1] is 0.0252 nM; in experiment [2], 0.0225 nM. Moreover, the Ki on human Gcg receptor came to 87.8 nM; on human GLP-1R, 0.82 nM; at human GIP receptor it was 0.0308 nM.

Source of the values: patent US12252524B2, “GIP/GLP1 co-agonist compounds” (Eli Lilly and Company, priority 2018, dated 2025).
